Measurements reported in patent US20090113563A1, “Probe for detecting nuclear receptor agonist or antagonist and method for screening agonist or antagonist to nuclear receptor with the use of the same” (priority 2004, published 2009).
No end group written: not given here.

How the values were obtained:
[1] = target: T1, human estrogen receptor αLBD (Homo sapiens, UniProt P03372); assay: FRET probe (CFP-SRC-1 LXXLL-linker-ER αLBD-YFP) for estrogen receptor agonist/antagonist in living CHO-K1 cells; assay type: cell-based
T1 construct: expressed in transfected cells; host or cells: CHO-K1 (Chinese hamster ovary), pcDNA3.1(+)
T1 sequence (P03372 with tags, fused parts or gaps L306P/I326L/L327I/T334S/V368G/T371N/T483N/Q502R/S527N): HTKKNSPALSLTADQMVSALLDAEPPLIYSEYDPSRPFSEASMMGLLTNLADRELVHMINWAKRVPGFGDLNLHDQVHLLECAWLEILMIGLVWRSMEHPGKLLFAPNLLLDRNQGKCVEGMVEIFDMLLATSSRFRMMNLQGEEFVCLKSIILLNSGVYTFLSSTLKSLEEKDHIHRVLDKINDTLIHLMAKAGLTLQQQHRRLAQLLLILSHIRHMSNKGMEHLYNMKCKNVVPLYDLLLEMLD
Description: (§1) Each cell was cultured in Ham's F-12 medium supplemented with 10% fetal calf serum (FCS)b and Dulbecco's modified eagle medium supplemented with 10% FCS, 1.0 mM sodium pyruvate and 0.1 mM nonessential amino acids respectively at 37° C. in a humidified atmosphere 5% CO2. Cells were transfected with an expression vector pcDNA3.1(+) containing a probe in the presence of lipofectAMINE 2000 reagent in glass bottom dishes.
(§2) The cells were Chinese hamster ovary (CHO-K1) cells for a probe for detecting an agonist or an antagonist to an estrogen receptor or a peroxisome growth factor-activating receptor, and pig kidney (PK-15) cells for a probe for detecting an agonist or an antagonist to an androgen receptor.
(§3) Before imageing, the culture medium was replaced with Hanks' balanced salt solution.
(§4) The exposure time at 440±10 nm excitation was 100 ms.
The ED50 values were converted to relative recruitment ability (RRA; Non-Patent Document 34) to compare the relative abilities of the tested compounds to promote the recruitment of the binding-responsive site to the ligand-recognition site. The RRA were calculated using the following equation.

PPAR γ-LBD = target: T2, PPAR γ-LBD (Homo sapiens, UniProt P37231); assay: FRET probe for peroxisome proliferator-activated receptor agonist/antagonist in living CHO-K1 cells; assay type: cell-based; conditions: 10 μM
T2 construct: expressed in transfected cells; host or cells: CHO-K1, pcDNA3.1(+)
T2 sequence (P37231 235-505): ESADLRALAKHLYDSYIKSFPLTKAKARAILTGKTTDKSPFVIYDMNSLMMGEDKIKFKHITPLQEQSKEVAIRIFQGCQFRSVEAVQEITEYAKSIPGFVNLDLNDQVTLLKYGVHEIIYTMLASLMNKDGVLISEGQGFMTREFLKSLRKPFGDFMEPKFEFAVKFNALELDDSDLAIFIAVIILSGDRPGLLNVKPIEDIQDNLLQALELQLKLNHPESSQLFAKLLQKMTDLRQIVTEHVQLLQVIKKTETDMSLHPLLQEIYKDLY
Description: According to nearly the same procedure as in the case of the above (A), a plasmid was constructed.
as §1, §2, §3, §4

[2] = target: T3, human androgen receptor LBD (Homo sapiens, UniProt P10275); assay: FRET probe for androgen receptor agonist/antagonist in living PK-15 cells; assay type: cell-based
T3 construct: expressed in transfected cells; host or cells: PK-15 (pig kidney), pcDNA3.1(+)
T3 sequence (P10275 674-912): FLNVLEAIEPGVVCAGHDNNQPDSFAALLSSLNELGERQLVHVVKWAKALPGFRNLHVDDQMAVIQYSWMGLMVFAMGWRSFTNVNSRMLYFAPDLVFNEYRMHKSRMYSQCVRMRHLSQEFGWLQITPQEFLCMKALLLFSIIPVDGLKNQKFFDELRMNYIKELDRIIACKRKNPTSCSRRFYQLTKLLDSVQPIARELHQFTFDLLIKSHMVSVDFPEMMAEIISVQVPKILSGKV
Description: According to nearly the same procedure as in the cases of the above (A) and (B), a plasmid was constructed.
as §1, §2, §3, §4

[3] = target: T4, peroxisome growth factor-activating receptor γ ligand-binding domain (235-505aa) (Homo sapiens (Human), UniProt P37231 235-505); assay: intramolecular CFP/YFP FRET of the probe in CHO-K1 cells, 10 µM 15d-PGJ2
T4 construct: also called PPAR γ-LBD
T4 sequence: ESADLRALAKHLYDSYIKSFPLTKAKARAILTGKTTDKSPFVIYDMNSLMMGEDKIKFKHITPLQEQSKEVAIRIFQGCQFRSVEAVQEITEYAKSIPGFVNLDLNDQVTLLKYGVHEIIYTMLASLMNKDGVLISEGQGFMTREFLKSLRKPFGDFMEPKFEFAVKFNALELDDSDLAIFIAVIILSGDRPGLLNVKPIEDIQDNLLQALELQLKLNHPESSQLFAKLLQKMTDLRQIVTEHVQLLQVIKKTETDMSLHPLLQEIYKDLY
Description: CHO-K1 cells expressing the probe (FIG. 2B) were stimulated by 10 μM 15d-PGJ₂ and the event was observed by following time course fo the changes in FRET.

[4] = target: T5, human estrogen receptor α ligand-binding domain (305-550aa) (human, UniProt P03372 305-550); assay: cell-based or functional assay
T5 sequence (looked up): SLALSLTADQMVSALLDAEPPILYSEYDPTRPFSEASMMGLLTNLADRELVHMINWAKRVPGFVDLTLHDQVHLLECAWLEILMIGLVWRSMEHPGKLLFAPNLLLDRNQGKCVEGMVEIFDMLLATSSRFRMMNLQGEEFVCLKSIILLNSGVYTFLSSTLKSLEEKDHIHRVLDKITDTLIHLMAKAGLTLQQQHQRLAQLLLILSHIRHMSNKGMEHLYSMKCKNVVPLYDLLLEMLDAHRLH

[5] = target: T5, human estrogen receptor α …; assay: intramolecular CFP/YFP FRET in living cells, 100 nM E2
[6] = target: T6, human androgen receptor ligand-binding domain (672-910aa) (human, UniProt O97775 665-903 (Pan troglodytes entry)); assay: intramolecular CFP/YFP FRET in living cells, 100 nM DHT
T6 construct: also called AR-LBD; ligand-recognition site
T6 sequence: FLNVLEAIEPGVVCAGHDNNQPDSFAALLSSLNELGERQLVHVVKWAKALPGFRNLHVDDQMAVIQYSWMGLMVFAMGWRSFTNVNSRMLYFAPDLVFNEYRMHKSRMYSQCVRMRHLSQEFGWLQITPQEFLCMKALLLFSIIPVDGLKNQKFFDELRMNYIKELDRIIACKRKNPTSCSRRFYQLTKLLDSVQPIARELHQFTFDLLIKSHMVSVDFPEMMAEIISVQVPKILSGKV

## 4-hydroxytamoxifen [OHT]
[1]
  change in FRET response: no increase in the FRET

## CCCCC/C=C/C=C1/C(=O)C=C[C@@H]1C/C=C\CCCC(=O)O [15d-PGJ2, 15-deoxy-Δ^12,14-prostaglandin J2]
PPAR γ-LBD; FIG. 4B-a
  change in CFP/YFP emission ratio (480/535 nm): decrease in CFP/YFP emission ratio (480/535 nm) (increase in FRET)
  time for emission ratio decrease to reach plateau: ≤ 1000 s

## CC(C)(c1ccc(OCC2CO2)cc1)c1ccc(OCC2CO2)cc1 (stereo not drawn) [BADGE, bisphenol A diglycidyl ether]
PPAR γ-LBD; FIG. 7
  change in emission ratio (FRET response): no significant change in the emission ratio

## C[C@]12CCC(=O)C=C1CC[C@@H]1[C@@H]2[C@@H](O)C[C@@]2(C)[C@H]1CC[C@]2(O)C(=O)CO [cortisol]
[2]; PK-15 cells, 1.0×10^−4 to 1.0×10^−11 M, FIG. 5B
  FRET response over tested concentration range: did not show the response at any tested concentration

## CC12CC1(C)C(=O)N(c1cc(Cl)cc(Cl)c1)C2=O (stereo not drawn) [procymidone]
[2]; 100 nM alone, PK-15, FIG. 8
  change in FRET response, antagonist alone: no significant increase in the FRET
[2]; DHT 1.0, 10, 100 nM + 10 μM antagonist, PK-15, FIG. 8
  FRET response with DHT plus antagonist: the FRET level increased in a dose dependent manner of DHT

## nonylphenol [NP]
[1]; RRA=(conc. E2 [50% response]/conc. EDC [50% response])×100, E2 set at 100
  relative recruitment ability (RRA): 3.0
[1]; read-out: EC50 (concentration inducing 50% response of LXXLL motif recruitment to ER αLBD), CHO-K1 cells expressing the probe, from response curves of FIG. 5A, tested 1.0×10^−4 to 1.0×10^−11 M
  EC50: 0.26 µM

B1: steroid receptor coactivator 1 NR box II (687-697aa) coactivator peptide (peptide)
peptide: HKILHRLLQEG
modifications: also: segment of CFP–NR box–GGNGG-type linker–LBD–YFP fusion probe
notes: Not tested as a free peptide; also called SRC-1 NR box II
[3]
  binding result: binds
[4]
  EC50 of the small-molecule ligand DES for the FRET response of the probe (CHO-K1 cells): 0.013 µM
  EC50 of the small-molecule ligand E2 for the FRET response of the probe (CHO-K1 cells): 0.008 µM
  EC50 of the small-molecule ligand NP for the FRET response of the probe (CHO-K1 cells): 0.26 µM

## HKIAHRAAQEG (also called mutant LXXLL motif)
[5]
  binding result: no binding
[6]
  binding result: no binding
